Results on four compounds are retold here after patent US20040014639A1, “Product and method for control of obesity” (priority 2000, published 2004).

In one experiment the test system is adipocytes. The experiment can be described thus: sensitisation of adipocytes to beta 3 agonist: 4 hour pre-incubation, then BRL 37344 for a further hour, lipolysis. The experiment is classed as cell-based, mouse. The conditions noted are these: for lipolytic effect of the beta 3 agonist after pre-incubation: 4 hour pre-incubation at varying concentrations, then 50 nanomolar BRL 37344 for a further hour. Here is the method:
Referring now to FIG. 2, an experiment was performed to determine whether hGH (FIG. 2A) or AOD 9604 (FIG. 2B) sensitises the adipocytes to the actions of the beta 3 agonists. First, the adipocytes were incubated with hGH or AOD 9604 at varying concentrations for four hours. The cells were then further incubated with a half-maximal concentration of BRL 37344 of 50 nanomolar for a further hour.

The test system of experiment [1] is beta 3 messenger RNA. As to the kind of experiment: beta 3 messenger RNA expression after chronic treatment of ob/ob mice. The experiment is classed as in vivo. The settings on record: versus control ob/ob mice.
The subject of another experiment is 3T3-F442 cells. The experiment can be described thus: in vitro lipolysis (glycerol release), 1 hour incubation. The class given is cell-based, mouse. The conditions noted are these: for shape of lipolytic dose response: 1 hour, varying concentrations, agent alone. Here is the method: Referring now to FIG. 1, 3T3-F442 cells (an immortal mouse adipocyte cell line) were incubated for 1 hour with varying concentrations of the rodent beta 3 agonist BRL 37344. […] In a third sample, AOD 9604 and BRL 37344 were co-administered with varying concentrations of AOD 9604, together with the maximal concentration of 1 μM of the BRL 37344.

The test system of a further experiment is ob/ob mice. As to the kind of experiment: fat mass after chronic treatment of ob/ob mice. The class given is in vivo. From the text:
It is believed that the obesity reducing effect of AOD9604 is at least in part a result of this sensitisation to the lipolytic affects of endogenous catecholamines (ie. epinephrine). Accordingly, chronic co-administration of AOD9604 and a beta 3 agonist will enhance the anti-obesity action of either agent administered alone.

The subject of experiment [2] is beta 3 messenger RNA. As to the kind of experiment: beta 3 messenger RNA expression in adipocytes after four-hour incubation (PCR/RT-PCR, normalised to β-actin). The experiment is classed as cell-based, mouse. The settings on record: 4 hour incubation. Here is the method: Referring now to FIG. 3, the effect of the four-hour incubation of the adipocytes with hGH (FIG. 3A) or AOD 9604 (FIG. 3B) at two concentrations on expression of beta 3 messenger RNA was assessed using PCR/RT-PCR analysis of the content of beta 3 messenger RNA, using β-actin to normalise the data.

The target in experiment [3] is beta 3 adrenergic receptor (Mus musculus, UniProt P25962). The experiment can be described thus: agonism at the beta 3 adrenergic receptor.
Chain of beta 3 adrenergic receptor (P25962 whole entry): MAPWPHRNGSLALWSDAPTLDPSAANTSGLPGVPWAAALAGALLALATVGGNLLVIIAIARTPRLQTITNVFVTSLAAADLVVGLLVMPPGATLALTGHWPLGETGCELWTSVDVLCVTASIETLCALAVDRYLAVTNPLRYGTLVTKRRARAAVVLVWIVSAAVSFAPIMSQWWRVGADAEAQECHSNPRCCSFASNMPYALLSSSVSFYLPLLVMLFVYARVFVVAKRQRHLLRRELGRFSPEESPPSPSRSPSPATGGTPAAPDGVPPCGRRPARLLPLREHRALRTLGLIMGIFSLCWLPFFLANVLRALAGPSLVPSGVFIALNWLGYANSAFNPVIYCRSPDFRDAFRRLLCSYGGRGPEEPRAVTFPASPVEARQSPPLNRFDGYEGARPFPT
In the next experiment the test system is C57Bl/6J (Ob/Ob) mouse. The conditions noted are these: by injection; cited from earlier work.

pEC50: −log10 of the molar value. Entries after “also recorded” stand apart in the source; their conditions may differ.

As for hGH: human growth hormone, in the experiment on adipocytes, the “lipolytic effect of the beta 3 agonist after pre-incubation” value is given as “synergistic effect; also recorded: enhanced”. In the experiment with beta 3 messenger RNA [1] (1.0 mg/kg/day for 14 days), the “beta 3 messenger RNA in brown adipocytes” value is “increase” and the “beta 3 messenger RNA in white adipocytes” value is “increase”.

`C[C@H](Cc1ccc(OCC(=O)O)cc1)NC[C@H](O)c1cccc(Cl)c1` [BRL 37344]: the “concentration giving maximal lipolytic effect” value in the experiment on 3T3-F442 cells (1 hour incubation) was determined as 1 µM. For the same compound, in the experiment with 3T3-F442 cells (1 hour incubation, at 1 μM), the “maximal effect, glycerol released” value is recorded as “approximately 6 μM per milligram protein”. The “shape of lipolytic dose response” value in the experiment with 3T3-F442 cells is on record as “sigmoid-shaped dose response”. Moreover, the pEC50 in the experiment on adipocytes (adipocytes, read-out: half-maximal concentration (lipolysis)) was 7.30.

As to Tyr-hGH 177-191 [AOD9604], the “fat mass of the treated animals” value with ob/ob mice was “significant reduction”. Further, the “shape of lipolytic dose response” value in the experiment with 3T3-F442 cells is “bell-shaped acute lipolytic response”. Besides, the “lipolytic effect of the beta 3 agonist after pre-incubation” value in the experiment with adipocytes is reported as “synergistic effect; also recorded: enhanced”. In addition, the “expression of beta 3 messenger RNA” value with beta 3 messenger RNA [2] is on record as “increase”. Moreover, the “agonist activity at the beta 3 adrenergic receptor” value in experiment [3] is reported as “not an agonist”. Moreover, in the experiment with beta 3 messenger RNA [1] (0.25 mg/kg/day for 14 days), the “beta 3 messenger RNA in brown adipocytes” value is listed as “increase” and the “beta 3 messenger RNA in white adipocytes” value is “increase”.

As to “hGH 177-191: synthetic peptide corresponding to amino acid residues 177-191 of the human growth hormone sequence (LRIVQCRSVEGSCGF; UniProt P01241 203-217, looked up, fragment)”, in the experiment on C57Bl/6J (Ob/Ob) mouse, the adipose tissue mass entry is given as “reduce” and the body weight gain result is listed as “reduce”.
